The values that follow come from patent US20140349994A1, “Novel 2-Amino-4,5,6,8-Tetrahydropyrazolo[3,4-b]Thiazolo [4,5-d]Azepine Derivatives and Their Use as Allosteric Modulators of Metabotropic Glutamate Receptors” (Addex Pharma S.A., priority 2012, published 2014).

In data set [1] the target is T1, recombinant human mGluR4a receptors (Homo sapiens, UniProt Q14833).
T1 construct: expressed in transfected cells
The data set can be described thus: mGluR4 assay on HEK-expressing human mGluR4: fluorescent cell based Ca2+ mobilization assay (FLIPR). To be noted: HEK-293 cells expressing hmGluR4; enhancement of EC25 glutamate response; mean of at least three independent experiments in duplicate; read-out: Ca^2+ Flux (mean EC50). An excerpt:
mGluR4 Assay on HEK-Expressing Human mGluR4
The compounds of the present invention are positive allosteric modulators of mGluR4 receptor. Their activity was examined on recombinant human mGluR4a receptors by detecting changes in intracellular Ca^2+ concentration, using the fluorescent Ca^2+-sensitive dye Fluo4-(AM) and a Fluorometric Imaging Plate Reader (FLIPR, Molecular Devices, Sunnyvale, Calif.).
The cDNA encoding the human metabotropic glutamate receptor (hmGluR4), (accession number NM 000841.1, NCBI Nucleotide database browser), was subcloned into an expression vector containing also the hygromycin resistance gene. In parallel, the cDNA encoding a G protein allowing redirection of the activation signal to intracellular calcium flux was subcloned into a different expression vector containing also the puromycin resistance gene. Transfection of both these vectors into HEK293 cells with PolyFect reagent (Qiagen) according to supplier's protocol, and hygromycin and puromycin treatment allowed selection of antibiotic resistant cells which had integrated stably one or more copies of the plasmids. Positive cellular clones expressing hmGluR4 were identified in a functional assay measuring changes in calcium fluxes in response to glutamate or selective known mGluR4 orthosteric agonists and antagonists.
HEK-293 cells expressing hmGluR4 were maintained in media containing DMEM, dialyzed Fetal Calf Serum (10%), Glutamax™ (2 mM), Penicillin (100 units/mL), Streptomycin (100 μg/mL), Geneticin (100 μg/mL) and Hygromycin-B (40 μg/mL) and puromycin (1 μg/mL) at 37° C.5% CO2.
Human mGluR4 HEK-293 cells were plated out 24 hours prior to FLIPR^384 assay in black-walled, clear-bottomed, poly-L-ornithine-coated 384-well plates at a density of 25,000 cells/well in a glutamine/glutamate free DMEM medium containing foetal bovine serum (10%), penicillin (100 units/mL) and streptomycin (100 μg/mL) at 37° C.5% CO2.
On the day of the assay, the medium was aspirated and the cells were loaded with a 3 μM solution of Fluo4-AM (LuBioScience, Lucerne, Switzerland) in 0.03% pluronic acid. After 1 hour at 37° C. 5% CO2, the non incorporated dye was removed by washing cell plate with the assay buffer and the cells were left in the dark at room temperature for six hours before testing. All assays were performed in a pH 7.4 buffered-solution containing 20 mM HEPES, 143 mM NaCl, 6 mM KCl, 1 mM MgSO4, 1 mM CaCl2, 0.125 mM sulfapyrazone and 0.1% glucose.
After 10 s of basal fluorescence recording, various concentrations of the compounds of the invention were added to the cells. Changes in fluorescence levels were first monitored for 180 s in order to detect any agonist activity of the compounds. Then the cells were stimulated by an EC25 glutamate concentration for an additional 110 s in order to measure enhancing activities of the compounds of the invention. EC25 glutamate concentration is the concentration giving 25% of the maximal glutamate response.
The concentration-response curves of representative compounds of the present invention were generated using the Prism GraphPad software (Graph Pad Inc, San Diego, USA). The curves were fitted to a four-parameter logistic equation:
(Y=Bottom+(Top-Bottom)(1+10̂((Log EC50−X)*Hill Slope)
allowing the determination of EC50 values.
The Table 3 below represents the mean EC50 obtained from at least three independent experiments of selected molecules performed in duplicate.

T1 sequence (Q14833 33-912): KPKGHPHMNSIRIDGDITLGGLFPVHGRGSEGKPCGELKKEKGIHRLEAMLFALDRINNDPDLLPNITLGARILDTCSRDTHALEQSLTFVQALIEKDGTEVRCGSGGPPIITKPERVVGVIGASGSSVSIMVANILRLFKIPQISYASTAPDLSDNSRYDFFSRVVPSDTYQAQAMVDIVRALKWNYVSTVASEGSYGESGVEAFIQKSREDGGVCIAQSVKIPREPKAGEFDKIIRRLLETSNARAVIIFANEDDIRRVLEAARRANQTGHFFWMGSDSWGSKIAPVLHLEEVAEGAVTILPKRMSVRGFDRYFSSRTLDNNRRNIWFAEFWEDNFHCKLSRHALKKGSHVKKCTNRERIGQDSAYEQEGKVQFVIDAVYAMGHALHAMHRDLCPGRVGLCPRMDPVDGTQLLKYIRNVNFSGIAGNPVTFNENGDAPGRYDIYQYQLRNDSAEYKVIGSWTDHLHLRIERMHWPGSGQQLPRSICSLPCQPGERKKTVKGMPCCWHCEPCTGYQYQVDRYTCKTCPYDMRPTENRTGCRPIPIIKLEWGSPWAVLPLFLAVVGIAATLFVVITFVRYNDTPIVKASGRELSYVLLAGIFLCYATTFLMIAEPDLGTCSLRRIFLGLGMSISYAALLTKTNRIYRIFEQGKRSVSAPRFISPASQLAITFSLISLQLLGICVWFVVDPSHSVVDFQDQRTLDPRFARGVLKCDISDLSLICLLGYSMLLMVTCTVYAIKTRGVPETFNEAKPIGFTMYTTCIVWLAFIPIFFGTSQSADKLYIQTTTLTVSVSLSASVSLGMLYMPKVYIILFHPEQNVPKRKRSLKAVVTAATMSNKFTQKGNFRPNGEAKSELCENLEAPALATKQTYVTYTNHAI

As usually defined, the melting point is the temperature, or range, at which the solid turns liquid. What is called EC50 is the concentration at which the effect is half-maximal. Regarding `Cc1ccnc(Nc2nc3c(s2)CCN(Cc2ccc(Cl)cn2)c2[nH]ncc2-3)n1` [Compound 1-10], the melting point is 165 to 168 °C. Besides, the EC50 in data set [1] was < 100 nM.

As to `COCCN1CCc2sc(Nc3ncc(F)c(C)n3)nc2-c2cn[nH]c21` [Compound 1-129, N-(5-Fluoro-4-methylpyrimidin-2-yl)-6-(2-methoxyethyl)-4,5,6,8-tetrahydropyrazolo[3,4-b]thiazolo[4,5-d]azepin-2-amine], the melting point lay within 261 to 263 °C. For the same molecule, the EC50 in data set [1] was < 100 nM.

As for `CCOCCN1CCc2sc(Nc3ncc(F)cn3)nc2-c2cn[nH]c21` [Compound 1-134], the melting point was determined as 246 °C. In data set [1], the EC50 is < 100 nM.

`Fc1cnc(Nc2nc3c(s2)CCN(Cc2cccc(F)c2)c2[nH]ncc2-3)nc1` [Compound 1-2] displayed a melting point of 265 to 270 °C. In addition, the 50% effective concentration (EC50) in data set [1] lay within 1000 to 10000 nM.

`CC(C)c1nc(CN2CCc3sc(Nc4ncc(F)cn4)nc3-c3cn[nH]c32)no1` [Compound 1-147]: the melting point was > 260 °C. Further, in data set [1], the EC50 is < 100 nM.

For `CC(C)N1CCN(CCN2CCc3sc(Nc4ncc(F)cn4)nc3-c3cn[nH]c32)CC1` [Compound 1-141, N-(5-Fluoropyrimidin-2-yl)-6-(2-(4-isopropylpiperazin-1-yl)ethyl)-4,5,6,8-tetrahydropyrazolo[3,4-b]thiazolo[4,5-d]azepin-2-amine], the half-maximal effective concentration (EC50) in data set [1] is 1000 to 10000 nM.

On to `Cc1noc(CN2CCc3sc(Nc4ncc(F)cn4)nc3-c3cn[nH]c32)n1` [Compound 1-150, N-(5-Fluoropyrimidin-2-yl)-6-((3-methyl-1,2,4-oxadiazol-5-yl)methyl)-4,5,6,8-tetrahydropyrazolo[3,4-b]thiazolo[4,5-d]azepin-2-amine], for which the EC50 in data set [1] was < 100 nM.

On to `COC[C@H](C)N1CCc2sc(Nc3ncc(F)cn3)nc2-c2cn[nH]c21` [Compound 1-131, N-(5-Fluoropyrimidin-2-yl)-6-(2-methoxy-1(S)-methyl-ethyl)-4,5,6,8-tetrahydropyrazolo[3,4-b]thiazolo[4,5-d]azepin-2-amine], for which the melting point lay within 249 to 251 °C. For the same molecule, the EC50 in data set [1] was < 100 nM.

As for `OCCCN1CCc2sc(Nc3ncc(F)cn3)nc2-c2cn[nH]c21` [Compound 1-132, 3-(2-(5-Fluoropyrimidin-2-ylamino)-4,5-dihydropyrazolo[3,4-b]thiazolo[4,5-d]azepin-6(8H)-yl)propan-1-ol], the EC50 in data set [1] was 100 to 1000 nM.

For the molecule `Cc1ccnc(Nc2nc3c(s2)CCNc2[nH]ncc2-3)n1` [Compound 1-52], the melting point lay in the range of 229 to 232 °C. The EC50 in data set [1] is < 100 nM.

`Cc1cccc(Nc2nc3c(s2)CCN(C[C@@H]2CCCO2)c2[nH]ncc2-3)n1` [Compound 1-127] displayed a melting point of 229 to 231 °C. Also, the EC50 in data set [1] lay within 100 to 1000 nM.

`Fc1cnc(Nc2nc3c(s2)CCN(Cc2cc(C4CC4)no2)c2[nH]ncc2-3)nc1` [Compound 1-7] returned a melting point of 266 to 268 °C. The EC50 in data set [1] was < 100 nM.

For `Fc1cnc(Nc2nc3c(s2)CCN(CCCN2CCC(F)(F)CC2)c2[nH]ncc2-3)nc1` [Compound 1-148, 6-(3-(4,4-Difluoropiperidin-1-yl)propyl)-N-(5-fluoropyrimidin-2-yl)-4,5,6,8-tetrahydropyrazolo[3,4-b]thiazolo[4,5-d]azepin-2-amine], the melting point is 238 to 240 °C. Further, the half-maximal effective concentration (EC50) in data set [1] is 100 to 1000 nM.

As to `COCc1ccc(CN2CCc3sc(Nc4ncc(F)cn4)nc3-c3cn[nH]c32)nc1` [Compound 1-143], the melting point was in the range of 198 to 202 °C. In addition, the EC50 in data set [1] was < 100 nM.

In the case of `Fc1cnc(Nc2nc3c(s2)CCN(CC2CC(F)(F)C2)c2[nH]ncc2-3)nc1` [Compound 1-14], the melting point was > 280 °C. The EC50 in data set [1] lay within 100 to 1000 nM.

Consider `COC(C)(C)CN1CCc2sc(Nc3ncc(F)cn3)nc2-c2cn[nH]c21` [Compound 1-124], for which the melting point fell in the range of 282 to 285 °C. The EC50 in data set [1] is 100 to 1000 nM.

On to `CC1COCC(C)N1CCCN1CCc2sc(Nc3ncc(F)cn3)nc2-c2cn[nH]c21` (stereo not shown) [Compound 1-153], for which the melting point was determined as 223 °C. In addition, the EC50 in data set [1] is < 100 nM.

The molecule `N#Cc1cccc(CN2CCc3sc(Nc4ncc(F)cn4)nc3-c3cn[nH]c32)c1` [Compound 1-1, 3-((2-(5-Fluoropyrimidin-2-ylamino)-4,5-dihydropyrazolo[3,4-b]thiazolo[4,5-d]azepin-6(7H)-yl)methyl)benzonitrile] gave a melting point of 282 to 284 °C. Further, the EC50 in data set [1] is 100 to 1000 nM.

`Fc1cnc(Nc2nc3c(s2)CCN(Cc2csc(C4CC4)n2)c2[nH]ncc2-3)nc1` [Compound 1-8] displayed a melting point of 240 to 245 °C. In data set [1], the EC50 was 100 to 1000 nM.

`FCCCN1CCc2sc(Nc3ncc(F)cn3)nc2-c2cn[nH]c21` [Compound 1-149]: the melting point was > 290 °C. The EC50 in data set [1] is 1000 to 10000 nM.

Take `O=S1(=O)CCN(CCCN2CCc3sc(Nc4ncc(F)cn4)nc3-c3cn[nH]c32)CC1` [Compound 1-151, 4-(3-(2-((5-Fluoropyrimidin-2-yl)amino)-4,5-dihydropyrazolo[3,4-b]thiazolo[4,5-d]azepin-6(8H)-yl)propyl)thiomorpholine 1,1-dioxide]: the melting point was 272 to 273 °C. Also, the EC50 in data set [1] was < 100 nM.

Turning to `CNCCCN1CCc2sc(Nc3ncc(F)cn3)nc2-c2cn[nH]c21` [Compound 1-130, N-(5-Fluoropyrimidin-2-yl)-6-(3-(methylamino)propyl)-4,5,6,8-tetrahydropyrazolo[3,4-b]thiazolo[4,5-d]azepin-2-amine], in data set [1], the EC50 fell in the range of 1000 to 10000 nM.

As to `Cc1ccnc(Nc2nc3c(s2)CCN(Cc2ncccn2)c2[nH]ncc2-3)n1` [Compound 1-152], the EC50 in data set [1] lay within 100 to 1000 nM.

`Fc1cnc(Nc2nc3c(s2)CCN(CCN2CCOCC2)c2[nH]ncc2-3)nc1` [Compound 1-136, N-(5-Fluoropyrimidin-2-yl)-6-(2-morpholinoethyl)-4,5,6,8-tetrahydropyrazolo[3,4-b]thiazolo[4,5-d]azepin-2-amine]: the EC50 in data set [1] is 100 to 1000 nM.

Consider `Fc1cnc(Nc2nc3c(s2)CCN(Cc2ccc(N4CCOCC4)cn2)c2[nH]ncc2-3)nc1` [Compound 1-135, N-(5-Fluoropyrimidin-2-yl)-6-((5-morpholinopyridin-2-yl)methyl)-4,5,6,8-tetrahydropyrazolo[3,4-b]thiazolo[4,5-d]azepin-2-amine], for which the melting point was 240 °C. Besides, the EC50 in data set [1] was < 100 nM.

As for `Cc1ccnc(Nc2nc3c(s2)CCN(Cc2noc(C)n2)c2[nH]ncc2-3)n1` [Compound 1-146], in data set [1], the EC50 was < 100 nM.

The molecule `Cn1ccc(CN2CCc3sc(Nc4ncc(F)cn4)nc3-c3cn[nH]c32)n1` [Compound 1-139] returned a melting point of 195 to 200 °C. Moreover, the EC50 in data set [1] was in the range of 100 to 1000 nM.

As for `Cc1nc(Nc2nc3c(s2)CCN(CC2CC2)c2[nH]ncc2-3)ns1` [Compound 1-3], the EC50 in data set [1] was 1000 to 10000 nM.

Turning to `Fc1cnc(Nc2nc3c(s2)CCN(Cc2cc(C4CC4)on2)c2[nH]ncc2-3)nc1` [Compound 1-4], the half-maximal effective concentration (EC50) in data set [1] is < 100 nM.

For `Cc1nc(CN2CCc3sc(Nc4ncc(F)cn4)nc3-c3c[nH]nc32)no1` [Compound 1-138, N-(5-Fluoropyrimidin-2-yl)-6-((5-methyl-1,2,4-oxadiazol-3-yl)methyl)-4,5,6,8-tetrahydropyrazolo[3,4-b]thiazolo[4,5-d]azepin-2-amine], the EC50 in data set [1] was < 100 nM.

Regarding `Fc1cnc(Nc2nc3c(s2)CCN(CCCN2CCOCC2)c2n[nH]cc2-3)nc1` [Compound 1-140, N-(5-Fluoropyrimidin-2-yl)-6-(3-morpholinopropyl)-4,5,6,8-tetrahydropyrazolo[3,4-b]thiazolo[4,5-d]azepin-2-amine], in data set [1], the EC50 is < 100 nM.

On to `Fc1cnc(Nc2nc3c(s2)CCN(C[C@@H]2CCCO2)c2[nH]ncc2-3)nc1` [Compound 1-126], for which the EC50 in data set [1] is < 100 nM.
